Experimental data published in US20240000786A1, “COMPOSITION FOR ENHANCING INTRA-CELLULAR NITRIC OXIDE GENERATION” (INSTITUTE OF LIFE SCIENCES, priority 2020, published 2024).
Peptide text beside a SMILES is read from it.

T1: iNOS-NOSIP protein interaction (Homo sapiens, UniProt Q9Y314)
T1 construct: made in house; host or cells: E. coli BL21 (DE3)
T1 sequence (Q9Y314 with tags, fused parts or gaps): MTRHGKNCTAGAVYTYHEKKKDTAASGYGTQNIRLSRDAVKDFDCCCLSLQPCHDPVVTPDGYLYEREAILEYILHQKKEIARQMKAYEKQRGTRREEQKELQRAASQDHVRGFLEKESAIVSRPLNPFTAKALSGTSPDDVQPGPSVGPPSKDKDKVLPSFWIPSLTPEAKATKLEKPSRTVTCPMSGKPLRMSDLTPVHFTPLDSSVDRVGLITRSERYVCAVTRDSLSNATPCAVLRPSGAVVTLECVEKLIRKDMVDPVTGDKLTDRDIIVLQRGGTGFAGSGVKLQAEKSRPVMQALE

T2: rNOSIP (Homo sapiens, UniProt Q9Y314)
T2 construct: made in house; host or cells: E. coli BL21 (DE3)
T2 sequence (Q9Y314 with tags, fused parts or gaps): T1 sequence (Q9Y314 with tags, fused parts or gaps)

T3: recombinant Nitric oxide synthase interacting protein (NOSIP)
T3 chain: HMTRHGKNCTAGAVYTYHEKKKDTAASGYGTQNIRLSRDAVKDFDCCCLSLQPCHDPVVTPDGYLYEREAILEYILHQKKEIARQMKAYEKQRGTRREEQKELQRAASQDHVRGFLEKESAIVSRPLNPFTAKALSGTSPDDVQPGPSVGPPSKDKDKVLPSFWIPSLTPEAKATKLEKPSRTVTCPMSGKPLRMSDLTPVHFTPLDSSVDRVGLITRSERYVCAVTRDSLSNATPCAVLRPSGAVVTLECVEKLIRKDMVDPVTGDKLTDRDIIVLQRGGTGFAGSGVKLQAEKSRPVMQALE

B1: recombinant human iNOS oxygenase domain (protein)
chain: HMPRHVRIKNWGSGMTFQDTLHHKAKGILTCRSKSCLGSIMTPKSLTRGPRDKPTPPDELLPQAIEFVNQYYGSFKEAKIEEHLARVEAVTKEIETTGTYQLTGDELIFATKQAWRNAPRCIGRIQWSNLQVFDARSCSTAREMFEHICRHVRYSTNNGNIRSAITVFPQRSDGKHDFRVWNAQLIRYAGYQMPDGSIRGDPANVEFTQLCIDLGWKPKYGRFDVVPLVLQANGRDPELFEIPPDLVLEVAMEHPKYEWFRELELKWYALPAVANMLLEVGGLEFPGCPFNGWYMGTEIGVRDFCDVQRYNILEEVGRRMGLETHKLASLWKDQAVVEINIAVLHSFQKQNVTIMDHHSAAESFMKYMQNEYRSRGGCPADWIWLVPPMSGSITPVFHQEMLNYVLSPFYYYQVEAWKTHVWQDEKLE

Tests used:
[1] = target: T1, iNOS-NOSIP protein interaction; assay: SPR: inhibition of rNOSIP association with immobilized recombinant iNOS by iNOS peptides / small molecules; format: binding; conditions: for inhibition of iNOS-NOSIP protein interaction by iNOS derived peptides: iNOS peptides 250 nM, proteins 125 nM, SPR (FIG. 2(a)); for inhibition hierarchy of iNOS-NOSIP protein interaction: SPR, rank order; for kon / Kd: analyte rNOSIP alone or + peptide/small molecule, ligand r iNOS, 20° C.; for kon: 1:1 Langmuir, read-out: Ka; for Kd: Kd/Ka; for inhibition of binding of NOSIP with iNOS ligand by small molecules: rNOSIP 250 nM, small molecules 1 uM, SPR (FIG. 4)
Procedure: Four different iNOS peptides were synthesized commercially by China peptides and iNOS peptides were used for molecular interaction studies with immobilized recombinant iNOS purified protein. The iNOS peptides mediated inhibition of rNOSIP and riNOS protein association in Bio-Rad XPR 36 surface plasmon resonance biosensor instrument. […] 250 nM of iNOS peptides was used for inhibition assay with immobilized ligand(recombinant iNOS) in SPR analysis. Similar condition and concentration of small molecules were used for inhibition of recombinant protein association with immobilized ligand. […] The rNOSIP protein was incubated with iNOS derived peptide/small molecules for 30 minutes in ice for inhibition assay before the SPR application in our study. The molecular interaction was carried out at 20° C. and kinetic parameters were determined, after fitting the association and dissociation curves to a 1:1 (Langmuir)-binding model. An activated channel without immobilized ligand was used to evaluate nonspecific binding. The response curves were also recorded on control surfaces. Results were calculated after subtraction of the control values using the ProteOn Manager software.
The collected sensorgram data were processed by reference subtraction using double-referencing with the in-line blank buffer. The integrated ProteOn Manager software was used to fit the data with the Langmuir model describing a 1:1 binding stoichiometry. Ka is the association rate constant, Kd is the dissociation rate constant, and KD is the equilibrium dissociation constant, defined by the Kd/Ka ratio for the analytes-ligand binding.
The five small molecules bind with NOSIP and inhibit the association of recombinant NOSIP and recombinant iNOS. The rNOSIP protein was incubated with iNOS derived peptide or small molecules for 30 minutes in ice prior to SPR application. The molecular interaction was carried out at 20° C. and kinetic parameters were determined, after fitting the association and dissociation curves to a 1:1 (Langmuir)-binding model. An activated channel without immobilized ligand (recombinant iNOS) was used to evaluate nonspecific binding. The response curves were also recorded on control surfaces. Results were calculated after subtraction of the control values using the ProteOn Manager software.
The collected sensorgram data were processed by reference subtraction using double-referencing with the in-line blank buffer. The integrated ProteOn
Manager software was used to fit the data with the Langmuir model describing a 1:1 binding stoichiometry. Ka is the association rate constant, Kd is the dissociation rate constant, and KD is the equilibrium dissociation constant, defined by the Kd/Ka ratio for the analytes—ligand binding.

rNOSIP = target: T2, rNOSIP; assay: Isothermal titration calorimetry (ITC) of rNOSIP with small molecules / 18 mer iNOS peptide (PP2); format: binding; conditions: for Fold Change (KD): ITC KD relative to iNOS-Peptide2 = 1; for SM binding affinity with NOSIP, hierarchy: ITC, rank order
Procedure: The 18 mer iNOS peptide (PP2) and small molecules were used for physical association of molecules in calorimetric analysis. The molecular association leads to thermodynamics changes such as Gibb's free energy change (ΔG), entropy change (ΔS), enthalpy change (ΔH) and number of binding sites (N) in interacting solution were investigated by isothermal calorimetry MICROCAL PEQ (Malvern) at 25° C. […] The experiment consisted of multiple injections and each injection contained 1.5 μl of binding solution (recombinant NOSIP solution) with 120 second spacing time between subsequent injections. Sequential titrations were carried out and the sample solution was continuously stirred at 270 rpm by the rotating paddle attached to the syringe needle. Multiple injections of NOSIP made into the sample cell containing interacting solution of peptide and small molecules. The titration curves were analyzed using the analysis software provided with the calorimeter.
The 18 mer iNOS peptide (PP2) and five small molecules were used to analyze physical association in calorimetric analysis. The molecular association leads to thermodynamics changes such as Gibb's free energy change (ΔG), entropy change (ΔS), enthalpy change (ΔH) and number of binding sites (N) in interacting solution were investigated by isothermal calorimetry MICROCAL PEQ (Malvern) at 25° C. […] The experiment consisted of multiple injections and each injection contained 1.5 μl of binding solution with 120 second spacing time between subsequent injections. Sequential titrations were carried out and the sample solution was continuously stirred at 270 rpm by the rotating paddle attached to the syringe needle. Multiple injections of NOSIP made into the sample cell containing interacting solution of peptide and small molecules. The titration curves were analyzed using the analysis software provided with the calorimeter.

[2] = target: T3, recombinant Nitric oxide synthase …
[3] = ITC 25° C., small molecule/peptide in cell, NOSIP in syringe
[4] = 10 μM iNOS peptide in the chamber, 150 μM rNOSIP in syringe, 25° C. (FIG. 3)

Molecule	inhibition of iNOS-NOSIP protein interaction by iNOS derived peptides [1]	ΔG (rNOSIP; ITC 25° C.)	ΔH (rNOSIP; ITC 25° C.)	−TΔS (rNOSIP; ITC 25° C.)	Kd (rNOSIP; [3])	N (Sites) (rNOSIP; [3])	Fold Change (KD) (rNOSIP)	SM binding affinity with NOSIP, hierarchy (rNOSIP)	inhibition hierarchy of iNOS-NOSIP protein interaction [1]	kon [1]	Kd [1]	inhibition of binding of NOSIP with iNOS ligand by small molecules [1]	further results
PP3: iNOS derived peptide, SEQ ID No: 27 (GWKPKYGRFDVVPLVLQANGRDPELFEIPPDLVL; Human)	inhibited												inhibition of iNOS-NOSIP protein interaction by iNOS derived peptides ([1]; listed as Peptide3): less efficient in inhibiting interaction between iNOS and NOSIP
PP4: iNOS derived peptide, SEQ ID No: 28 (NLQVFDARSCSTAREMFEHICRHVRYSTNNGNI; Human)	inhibited												inhibition of iNOS-NOSIP protein interaction by iNOS derived peptides ([1]; listed as peptide-4): less efficient in inhibiting interaction between iNOS and NOSIP
CCCCN=c1scc(-c2ccc(O)c(C(N)=O)c2)n1N=Cc1cc(Br)c(O)c(OC)c1 [MCULE-8395438746, 5-(3-{[(3-bromo-4-hydroxy-5-methoxyphenyl)methylidene]amino}-2-(butylimino)-2,3-dihydro-1,3-thiazol-4-yl)-2-hydroxybenzamide]		-8.55 kcal/mol	-28.5 ± 0.694 kcal/mol	20.0 kcal/mol	542 ± 54.9 nM	0.864	0.989	CC4>CC11>CC6>CC5>CC13>Peptide 2 (iNOS)	CC4>CC11>CC6>CC5>CC13>iNOS Peptide 2	0.835 M⁻¹ s⁻¹	543000 nM	inhibit the binding of NOSIP with iNOS ligand	
Cc1ccc(-c2nnn(CC(=O)N(Cc3ccco3)C(C(=O)NC(C)(C)C)c3ccc(O)cc3)n2)cc1 (stereo not shown) [MCULE-8469877005, N-tert-butyl-2-{N-[(furan-2-yl)methyl]-2-[5-(4-methylphenyl)-2H-1,2,3,4-tetrazol-2-yl]acetamido}-2-(4-hydroxyphenyl) acetamide]		-8.56 kcal/mol	-29.3 ± 1.12 kcal/mol	20.8 kcal/mol	535 ± 80.8 nM	0.794	0.976	CC4>CC11>CC6>CC5>CC13>Peptide 2 (iNOS)	CC4>CC11>CC6>CC5>CC13>iNOS Peptide 2	0.822 M⁻¹ s⁻¹	588000 nM	inhibit the binding of NOSIP with iNOS ligand	
NS(=O)(=O)c1ccc(CCNC(=O)CCCn2c(SCC(=O)c3ccc(Cl)c(Cl)c3)nc3ccsc3c2=O)cc1 [MCULE-3765839647, 4-(2-{[2-(3,4-dichlorophenyl)-2-oxoethyl]sulfanyl}-4-oxo-3H,4H-thieno[3,2-d]pyrimidin-3-yl)-N-[2-(4-sulfamoylphenyl)ethyl]butanamide]		-7.5 kcal/mol	-27.3 ± 1.11 kcal/mol	19.8 kcal/mol	524 ± 64.9 nM	0.989	0.956	CC4>CC11>CC6>CC5>CC13>Peptide 2 (iNOS)	CC4>CC11>CC6>CC5>CC13>iNOS Peptide 2	0.807 M⁻¹ s⁻¹	704000 nM	inhibit the binding of NOSIP with iNOS ligand	
CC[C@H](C)[C@H](NC(=O)[C@H](CCCCN)NC(=O)[C@H](C)NC(=O)[C@H](CCC(=O)O)NC(=O)[C@H](CCCCN)NC(=O)[C@H](Cc1ccccc1)NC(=O)[C@H](CO)NC(=O)CNC(=O)[C@H](Cc1ccc(O)cc1)NC(=O)[C@H](Cc1ccc(O)cc1)NC(=O)[C@H](CCC(N)=O)NC(=O)[C@@H](N)CC(N)=O)C(=O)N[C@@H](CCC(=O)O)C(=O)N[C@@H](CCC(=O)O)C(=O)N[C@@H](Cc1c[nH]cn1)C(=O)N[C@@H](CC(C)C)C(=O)N[C@@H](C)C(=O)N[C@@H](CCCNC(=N)N)C(=O)O [iNOS-Peptide2] (H-NQYYGSFKEAKIEEHLAR-OH; N-terminus and C-terminus assumed)		-8.54 kcal/mol	-8.44 ± 0.271 kcal/mol	-0.10 kcal/mol		1.09	1	CC4>CC11>CC6>CC5>CC13>Peptide 2 (iNOS)	CC4>CC11>CC6>CC5>CC13>iNOS Peptide 2	536 M⁻¹ s⁻¹			Kd (rNOSIP; [4]): 493 ± 63.2 nM; ΔG (rNOSIP; [4]): -8.61 kcal/mol; ΔH (rNOSIP; [4]): -9.07 ± 0.251 kcal/mol; −TΔS (rNOSIP; [4]): 0.459 kcal/mol; Fold Change (KD) ([1]; SPR KD relative to rNOSIP + iNOS peptide2 = 1): 1; inhibition of iNOS-NOSIP protein interaction by iNOS derived peptides ([1]; listed as PP2): inhibited; inhibition of iNOS-NOSIP protein interaction by iNOS derived peptides ([1]; listed as PP-2): block significantly interaction between recombinant iNOS and NOSIP
PP1: iNOS derived peptide, SEQ ID No: 25 (TGDELIFATKQAWR; Human)	inhibited												inhibition of iNOS-NOSIP protein interaction by iNOS derived peptides ([1]; listed as Peptide-1): less efficient in inhibiting interaction between iNOS and NOSIP
B1													iNOS enzyme activity (nitrite quantified by Griess reaction, L-Arginine substrate) [2]: recombinant NOSIP inhibits enzyme activity of iNOS
